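Results reflect a 48-hour exposure of cells in 96-well plates to compound at five concentrations. GI50 = concentration required for 50% inhibition of growth. TGI: total growth inhibition.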
Assays:
Test in all cases: NCI anticancer screen, dose series, 48 h
CCRF-CEM leukemia = test system: CCRF-CEM leukemia
DU-145 prostate = test system: DU-145 prostate
K-562 leukemia = test system: K-562 leukemia
M14 melanoma = test system: M14 melanoma
MALME-3M melanoma = test system: MALME-3M melanoma
NCI/ADR-RES ovarian = test system: NCI/ADR-RES ovarian
OVCAR-5 ovarian = test system: OVCAR-5 ovarian
PC-3 prostate = test system: PC-3 prostate
RXF 393 renal = test system: RXF 393 renal
T-47D breast = test system: T-47D breast

| SMILES | GI50 (CCRF-CEM leukemia) [µM] | TGI (CCRF-CEM leukemia) [µM] | GI50 (DU-145 prostate) [µM] | TGI (DU-145 prostate) [µM] | GI50 (K-562 leukemia) [µM] | TGI (K-562 leukemia) [µM] | GI50 (M14 melanoma) [µM] | TGI (M14 melanoma) [µM] | GI50 (MALME-3M melanoma) [µM] | TGI (MALME-3M melanoma) [µM] | GI50 (NCI/ADR-RES ovarian) [µM] | TGI (NCI/ADR-RES ovarian) [µM] | GI50 (OVCAR-5 ovarian) [µM] | TGI (OVCAR-5 ovarian) [µM] | GI50 (PC-3 prostate) [µM] | TGI (PC-3 prostate) [µM] | GI50 (RXF 393 renal) [µM] | TGI (RXF 393 renal) [µM] | GI50 (T-47D breast) [µM] | TGI (T-47D breast) [µM] |
| --- | --- | --- | --- | --- | --- | --- | --- | --- | --- | --- | --- | --- | --- | --- | --- | --- | --- | --- | --- | --- |
| O=c1oc2ccc(F)cc2c(=O)n1-c1ccc(F)cc1F | 3.95 | 67.4 | 4.18 | > 100 | 3.11 | > 100 | 2.47 | 8.04 | 2.25 | 6.33 | 3.24 | > 100 | 3.46 | > 100 | 2.81 | 10.1 | 2.52 | 6.99 | 2.28 | 7.08 |
| Cc1nc2cccc([N+](=O)[O-])c2c(NCCCN(C)C)c1C | – | > 75.2 | – | > 100 | – | > 76.9 | – | > 100 | – | > 31.6 | – | > 100 | – | 60.2 | – | > 50.8 | – | > 100 | – | > 100 |
| Cc1cc(I)cc(CNCCCN2CCSCC2)c1O | 10.4 | 39.9 | 20.3 | 42.7 | 8.4 | 26.1 | 13.9 | 28.4 | 17.3 | 33.9 | 18.1 | 36.6 | 15.9 | 41.7 | 17.7 | 36.3 | 11.1 | 24.1 | 16 | 40.6 |
| CC1OC(n2cc(F)c(=O)[nH]c2=O)CCC1O (stereo not given) | – | > 100 | – | > 100 | – | > 100 | – | > 100 | – | > 100 | – | > 100 | – | > 100 | – | > 100 | – | > 100 | – | > 100 |
| CNC(=O)OCc1c(COC(=O)NC)c(-c2ccc(Cl)c(Cl)c2)n2c1SCC2 | – | 64.9 | – | 39.5 | – | 52 | – | 37.9 | – | 37.8 | – | 40 | – | 10.8 | – | 55.1 | – | 13.8 | – | 57.2 |
| O=C1/C(=C/c2ccc(Br)cc2)C=C(c2ccccc2)N1CCc1ccccc1 | 7.76 | > 100 | 2.54 | 15.8 | 2.63 | 20.5 | 3.53 | 71.8 | 1.5 | 6.64 | 1.08 | 8.01 | 4.28 | 40.2 | 1.2 | 5.06 | 1.26 | 3.78 | 13.3 | > 100 |
| COc1ccc(C2=NN(C(=O)c3cc(OC)c(OC)c(OC)c3)C(c3ccc(C#N)cc3)C2)cc1OC (stereo not given) | 3.03 | > 100 | 2.98 | > 39 | 0.889 | > 100 | 1.8 | 10.4 | 14.6 | > 78.9 | 0.603 | 11.1 | 5.24 | > 100 | 1.94 | > 52.3 | 0.541 | 4.69 | 3.64 | 97.6 |

From PubChem BioAssay (NCI)
